Measured values reported in patent US5140102A, “Pentadecapeptide, guanylin, which stimulates intestinal guanylate cyclase” (Monsanto Company, priority 1991, dated 1992).
Positions of bridges follow the written chain, without caps; N, C: chain ends. Residues, ends and D or L forms follow the SMILES beside them.

How the values were obtained:
[1] = biological target: T1, intestinal guanylate cyclase (Homo sapiens, UniProt P25092); assay: Cyclic GMP determination in T84 cells (bioassay); format: cell-based
T1 construct: Monolayers of T84 cells in 24-well plates were washed twice; host or cells: T84 human colon carcinoma cells
T1 sequence (P25092 24-1073): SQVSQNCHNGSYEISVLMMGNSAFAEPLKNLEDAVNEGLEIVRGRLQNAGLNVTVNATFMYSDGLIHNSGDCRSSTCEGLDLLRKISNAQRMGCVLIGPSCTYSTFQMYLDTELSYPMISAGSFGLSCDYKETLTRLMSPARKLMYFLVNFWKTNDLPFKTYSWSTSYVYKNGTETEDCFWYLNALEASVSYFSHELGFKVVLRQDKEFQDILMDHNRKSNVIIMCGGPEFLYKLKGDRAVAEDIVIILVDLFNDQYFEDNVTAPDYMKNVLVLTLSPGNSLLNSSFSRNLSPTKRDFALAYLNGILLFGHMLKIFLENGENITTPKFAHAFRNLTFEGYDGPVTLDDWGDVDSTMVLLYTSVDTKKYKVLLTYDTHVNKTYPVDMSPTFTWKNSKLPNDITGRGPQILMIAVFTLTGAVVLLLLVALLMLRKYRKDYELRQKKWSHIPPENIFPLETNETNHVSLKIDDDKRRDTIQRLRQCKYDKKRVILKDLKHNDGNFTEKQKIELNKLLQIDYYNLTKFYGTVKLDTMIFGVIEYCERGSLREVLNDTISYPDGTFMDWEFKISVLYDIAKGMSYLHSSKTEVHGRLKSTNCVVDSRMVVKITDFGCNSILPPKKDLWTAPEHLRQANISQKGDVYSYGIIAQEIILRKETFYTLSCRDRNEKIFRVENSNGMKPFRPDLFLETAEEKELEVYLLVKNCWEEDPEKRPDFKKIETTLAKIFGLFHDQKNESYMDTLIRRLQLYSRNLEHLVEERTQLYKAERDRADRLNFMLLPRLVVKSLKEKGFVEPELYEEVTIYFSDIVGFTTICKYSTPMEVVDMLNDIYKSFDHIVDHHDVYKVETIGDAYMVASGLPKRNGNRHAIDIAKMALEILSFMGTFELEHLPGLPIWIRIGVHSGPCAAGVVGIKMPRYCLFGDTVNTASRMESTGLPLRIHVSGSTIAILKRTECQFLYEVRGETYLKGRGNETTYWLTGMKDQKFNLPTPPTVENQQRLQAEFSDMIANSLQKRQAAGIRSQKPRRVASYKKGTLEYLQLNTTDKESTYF

proximal colon = conditions: read-out: EC50 for increase in Isc (X±S.E.); mucosal (luminal) addition, rat proximal colon, n=4 animals

**Q.** Which “effect on responsiveness of the cells” value ([1]; T84 cells treated with 10 μM) does the source give for `O[C@H](CS)[C@H](O)CS` (racemic) [DTT, dithiothreitol] here?
**A.** failed to affect their responsiveness

**Q.** With `CC[C@H](C)[C@@H]1NC(=O)[C@H](CCCNC(=N)N)NC(=O)[C@H](CC(=O)O)NC(=O)[C@H](CCSC)NC(=O)[C@H](CCCNC(=N)N)NC(=O)CNC(=O)CNC(=O)[C@H](Cc2ccccc2)NC(=O)[C@@H](NC(=O)[C@H](CO)NC(=O)[C@H](CO)NC(=O)[C@H](CCCNC(=N)N)NC(=O)[C@H](CCCNC(=N)N)NC(=O)[C@H](CC(C)C)NC(=O)[C@@H](N)CO)CSSC[C@@H](C(=O)N[C@@H](CC(N)=O)C(=O)N[C@@H](CO)C(=O)N[C@@H](Cc2ccccc2)C(=O)N[C@@H](CCCNC(=N)N)C(=O)N[C@@H](Cc2ccc(O)cc2)C(=O)O)NC(=O)CNC(=O)[C@H](CC(C)C)NC(=O)CNC(=O)[C@H](CO)NC(=O)[C@H](CCC(N)=O)NC(=O)[C@H](C)NC(=O)CNC1=O` [atrial natriuretic peptide] as the molecule, how does the “effect on cyclic GMP levels” value [1] read?
**A.** not detected

**Q.** `CC[C@H](C)[C@@H]1NC(=O)[C@H](CCC(=O)O)NC(=O)[C@@H](NC(=O)[C@@H](NC(=O)[C@H](CC(N)=O)NC(=O)[C@@H]2CCCN2)[C@@H](C)O)CSSC[C@@H]2NC(=O)[C@H](C)NC(=O)[C@H](C)NC(=O)[C@H](Cc3ccc(O)cc3)NC(=O)[C@H](C)NC(=O)[C@H](CSSC[C@@H](C(=O)O)NC(=O)CNC(=O)[C@H]([C@@H](C)O)NC2=O)NC1=O` [guanylin] (H-PNTCEICAYAACTGC-OH; disulfide 4-12, 7-15) was tested. Which EC50 (proximal colon) did it give?
**A.** 162 ± 26 nM
